The target in one experiment is T1, PP1 (Oryctolagus cuniculus, UniProt P62139).
T1 construct: purchased NewEngland Biolabs; host or cells: E. coli
Nature of the experiment: DiFMUP assay for PP1. In kind it is biochemical. The settings on record: 2 mU PP1c, 30 min preincubation, 25°C, DiFMUP, no BSA; mean ± SEM (n = 3–5); read-out: IC50 (Ki) PP1. The method, then: Fig 2 Effect of polyphenolic compounds 8 (A), 9 (B), 10 (C) and 11 (D) on the phosphatase activity of PRL-1, PRL-2, PRL-3, PP1, and PP2A. Proteins were incubated for 30 min with 0–1000 μM of the corresponding procyandin 8–11. Phosphatase activity was measured in the presence of DiFMUP at 25°C using the concentration corresponding to the KM of each protein. The KM for PRLs was determined separately (PRL-3 = 21 μM, PRL-2 and PRL-1 = 24 μM). The KM for PP1 (91 μM) and for PP2A (100 μM) was taken from the literature. Protein concentrations are 50 nM for all PRLs and 2 mU for PP1 and 0.05 U for PP2A (see the Experimental Procedures). Phosphatase activity in the absence of inhibitors was set as 100%. Data represent means ± standard errors of the mean (n = 3–5).
BSA, which is usually supplemented to the assay buffer for stabilizing the PPs was however excluded, as BSA is known to form complexes with polyphenolic compounds [40–42] and thus would decrease the concentrations of the inhibitor in the assay. […] In contrast, the phosphatase activity of PP2A was suppressed to a much lesser extent with weak (for trimer 9 and hexamer 11) and strong statistical significance (dimer 8 and tetramer 10). Thus our results corroborate the data reported previously.
DiFMUP assay for PP1: In a final reaction volume of 100 μL PP1c (2 mU final concentration, according to manufacturer’s instructions) were incubated with decreasing concentrations of the inhibitory polyphenols for 30 minutes at 25°C. The assay buffer contained 25 mM imidazole (pH 7.4), 1 mM dithiothreitol (DTT), and 50 mM NaCl. Bovine serum albumin (BSA) was excluded due to possible binding of the polyphenolic compounds. After the incubation time 20 μL DiFMUP (6,8-Difluoro-4-methylumbelliferyl phosphate) was added to reach a final concentration of 100 μM. Monitoring of the fluorescent dephosphorylation product was monitored and data analyzed as described above.

The subject of experiment [1] is HEK293 empty vector control cell line. Nature of the experiment: Wound healing assay. The settings on record: 7 h, empty vector cells. In kind it is cell-based. On the procedure:
(§1) To study if procyanidin C2 is able to inhibit PRL-1 and PRL-3 in cells, HEK293 cells were treated in a wound-healing assay (see the experimental procedures). […] As a control the empty vector cell line was again utilized. […] The migration speed was for all cell lines similar when treated with 50 μM of 9. To further corroborate these findings we performed additionally a transwell assay as an alternative way to study cell migration.
(§2) Fig 6 Wound healing abilities of PRL-1 or PRL-3 overexpressing or empty vector control HEK293 cell lines were analyzed in the presence of compound 9 or medium only. Cells were seeded at a concentration of 800,000 cells per insert and procyanidin C2 (9) was added at a concentration of 25 and 50 μM. A) Pictures of the wound gaps were taken at 0 h and 7 h for both conditions (with and without treatment). B) Quantification of the wound healing experiment. Speed of migration is shown for combined data from different replicates, as mean ± SD (n = 38–88). Two-sided t-tests with Welsh correction were performed for p < 0.05. ns = not significant;***: < 0.001; **: < 0.01; *: < 0.05. C) Effect of polyphenolic compounds in a transwell assay on the cell migration of HEK293 empty vector and PRL-3 overexpressing cell lines. Cells were seeded at a concentration of 100,000 cells per insert and procyanidin C2 (9) was added at a final concentration of 25 and 50 μM. Migration was allowed for 16 h before harvesting and staining with calcein AM for fluorescent readout. Mean ± SD (n = 60–72) is shown for combined data from different replicates. Two-sided t-tests with Welsh correction were performed for p < 0.05. ns = not significant. D) Quantification of wound healing experiment including blocking PRL-1 and PRL-3 with analog 3. Speed of migration is shown for combined data from different replicates, as mean ± SD (n = 63–82). Two-sided t-tests with Welsh correction were performed for p < 0.05.
(§3) Wound healing experiments were carried out with μ-dish 35mm culture inserts. 8 × 10^5 cells/mL of the respective HEK293 stable cell lines were seeded into each of the two insert wells and allowed to settle for 40 h in the presence of tetracycline. Then the inserts were gently removed and growth medium supplemented with 7.5% FBS and 0.1% tetracycline was added as well as procyanidin C2 (9) or procyanidin B3 (8) at a final concentration of 25, 50 or 75 μM. For the experiment including blocking of PRLs with analog 3, the latter one was added at a final concentration of 35 μM, followed by addition of procyanidin C2 (9) at either 25 or 50 μM final concentration. Negative controls contained growth medium with FBS only. Pictures of the wound gap were taken at 0 h and 7 h time points. A Zeiss Cellobserver HS microscope was used with 10 × magnitude. For data analysis, in each experiment, the distances between both cell fronts at time point 0 h and 7 h were measured by taking 20 different measuring points. Then all the measurements from different replicates (4) for each experiment were combined and analyzed by t-test using Welsh correction in GraphPad Prism. Data are shown with 99% confidence intervals.

Experiment [2] relates to PRL-1 overexpressing HEK293 cells. Nature of the experiment: Wound healing assay. It counts as cell-based. Conditions: for cell migration, wound healing: 7 h, PRL-1 overexpressing cells. The method, then:
as §1, §2, §3

The test system of experiment [3] is PRL-3 overexpressing HEK293 cells. Kind of experiment: Wound healing assay. It counts as cell-based. The settings on record: for cell migration, wound healing: 7 h, PRL-3 overexpressing cells. On the procedure:
as §1, §2, §3

T1 sequence (P62139 whole entry): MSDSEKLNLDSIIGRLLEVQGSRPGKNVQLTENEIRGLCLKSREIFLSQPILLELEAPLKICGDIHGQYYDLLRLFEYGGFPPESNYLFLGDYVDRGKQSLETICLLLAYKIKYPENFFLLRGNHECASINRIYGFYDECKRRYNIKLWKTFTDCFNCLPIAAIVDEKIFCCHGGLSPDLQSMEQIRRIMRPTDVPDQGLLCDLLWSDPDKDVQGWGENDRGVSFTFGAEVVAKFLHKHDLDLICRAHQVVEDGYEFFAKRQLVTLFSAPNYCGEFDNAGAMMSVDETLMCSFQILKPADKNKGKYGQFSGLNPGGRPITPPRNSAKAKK

In the case of `Oc1cc(O)c2c(c1)O[C@H](c1ccc(O)c(O)c1)[C@@H](O)[C@@H]2c1c(O)cc(O)c2c1O[C@H](c1ccc(O)c(O)c1)[C@@H](O)C2` [Procyanidin B3 (8), Procyanidin B3], the IC50 (as a rule, the midpoint of a concentration-inhibition curve) at PP1 was found to be 383 ± 43 µM. The “cell migration, wound healing” value is reported as “did not significantly increase migration behavior” in experiment [1] (50 μM); “did not significantly increase the migration speed” in experiment [1] (75 μM); “significantly decreased the number of migrating cells” in experiment [2] (50 μM); “further decreased migration” in experiment [2] (75 μM); “did not significantly increase migration behavior” in experiment [3] (50 μM); “did not significantly increase the migration speed” in experiment [3] (75 μM).

As for `Oc1cc(O)c2c(c1)O[C@H](c1ccc(O)c(O)c1)[C@@H](O)[C@@H]2c1c(O)cc(O)c2c1O[C@H](c1ccc(O)c(O)c1)[C@@H](O)[C@@H]2c1c(O)cc(O)c2c1O[C@H](c1ccc(O)c(O)c1)[C@@H](O)C2` [Procyanidin C2 (9), Procyanidin C2], the IC50 on PP1 worked out at 88 ± 13.7 µM. For the same molecule, the “cell migration, wound healing” value in experiment [1] (25 μM) is on record as “slightly increased migration behavior”; in experiment [1] (50 μM), “significantly increased the number of migrating cells”; in experiment [2] (25 μM) it was “slight drop in cell migration”; in experiment [2] (50 μM), “did not change any further compared to 25 μM”; in experiment [3] (25 μM), “did not decrease significantly”; in experiment [3] (50 μM) it was “significant decrease in cell migration”. In addition, the “migration, wound healing, PRLs blocked with analog 3” value in experiment [2] (25 μM of 9 plus 35 μM analog 3, PRL-1 overexpressing cells) was “not fully restored to the same level as the empty vector cell line”; in experiment [3] (25 μM of 9 plus 35 μM analog 3, PRL-3 overexpressing cells) it was “the same as for the empty vector cell line”. For the same molecule, the “migration speed, wound healing, PRLs blocked with analog 3” value is recorded as “exactly the same as for the empty vector cell line” in experiment [2] (50 μM of 9 plus 35 μM analog 3, PRL-1 overexpressing cells) and “exactly the same as for the empty vector cell line” in experiment [3] (50 μM of 9 plus 35 μM analog 3, PRL-3 overexpressing cells).

Values taken from PMC4520450, “Procyanidins Negatively Affect the Activity of the Phosphatases of Regenerating Liver” (PLoS ONE, 2015).
